Data set [1] deals with MRE11 recruitment at the Cas9 target site (VEGFA site 3 on-target site; HEK293T, K562). Description: MRE11 ChIP-qPCR at Cas9 target sites after exposure to DNA repair inhibitors. Particulars: for MRE11 recruitment at the target site (ChIP-qPCR): Cas9 with gRNA targeting VEGFA site 3, HEK293T, 12 hours, 1 μM KU-60648, 20 µM Nu7026, 10 μM Ku-55933, 1 μM Scr7, 10 μM Olaparib. The class given is cell-based, human. The source says: (§1) The supernatant was decanted.

For data set [2], the system named is 53BP1 and BRCA1 foci in U2OS cells stably expressing Cas9-EGFP. Description: Super-resolution STED microscopy of 53BP1 and BRCA1 repair foci after Cas9-induced DNA breaks. The class given is cell-based. How it is done:
U2OS cells stably expressing Cas9-EGFP cells were seeded onto 35-mm, glass bottom dishes and transfected with mtgRNAs for 12-24 hrs. Cleavage was activated by UV light for 1 minute. To fix cells, 4% of pre-warmed paraformaldehyde in 1×PBS was used for 10 min. After rinsing 3 times with 1×PBS, cell membrane permeabilization was done with Triton-X used for 10 min. Then, cells 2% w/v BSA in 1×PBS was used for blocking for 1 hr and at room temperature. The primary antibodies, mouse anti-BRCA1 (D-9 sc-6954 Santa Cruz) and anti-53bpl (Abcam, ab172580), were diluted (1:500) in 1×PBS and directly added into the imaging dish. After 1 hr incubation, the primary antibody was removed, and the sample was washed with 1×PBS three times. The samples were then incubated for 30 minutes with the secondary antibodies Alexa-594 and Atto-647N diluted (1:1000) in 1×PBS. Finally, the sample was rinsed three times and mounted with Prolong Diamond mounting media (Thermo Fisher Scientific) overnight.
All STED images were obtained using a home-built two-color STED microscope (Han and Ha, 2015: Ma and Ha, 2019). In short, a femtosecond laser beam with a repetition rate of 80 MHz from a Ti: Sapphire laser head (Mai Tai HP, Spectra-Physics) is split into two parts: one part produces an excitation beam coupled into a photonic crystal fiber (Newport) for wide-spectrum light generation. […]

The test system of data set [3] is MRE11 at Cas9 PCSK9 target sites in mouse liver. Description: DISCOVER-Seq+ in liver of mice given adenovirus Cas9/gRNA targeting PCSK9. The class given is in vivo, mouse (C57BL/6J). The procedure:
For in vivo gene delivery, 8-10 week old mice were anesthetized with 2.5% isofluorane/oxygen mixture. Mice received a single retro-orbital injection of 1×10^9 infectious adenoviral particles (Ad-Cas9-U6-mPCSK9-sgRNA) in 100 μL sterile saline. Immediately following, mice received intraperitoneal delivery of KU-60648 dosed at 25 mg/kg (or vehicle only) in 100 μL of citrate buffer, or 100 μL of citrate buffer vehicle. Mice received a dose of KU-60648 or vehicle every 12 hrs via intraperitoneal injection.
At the experimental endpoint of 12 h, mice were anesthetized with isofluorane and euthanized via cervical dislocation. Liver tissue was harvested, washed 3× in 2 mL PBS with 1× protease inhibitor (Halt™ Protease Inhibitor Cocktail, Thermo), then disrupted the tissue in 1 mL PBS with 1× protease inhibitor using a loose-fitting Dounce homogenizer. For MRE11 ChIP-seq, homogenized tissue was placed on ice and used immediately.
as §1

The test system of data set [4] is MRE11 at Cas9 TRA target sites in primary human T-cells. Description: DISCOVER-Seq+ in primary human T-cells with Cas9 targeting TRA (CAR knock-in). The class given is cell-based.
Description: as §1

Another data set relates to Cas9 editing of ACTB. Description: Sequencing of insertion-deletion mutations (indels) after Cas9 targeting ACTB. The class given is cell-based. Particulars: 48 hours after Cas9 editing; especially +1 insertions reduced in favor of larger -3 deletions. How it is done:
Genomic DNA was extracted using the DNeasy Blood & Tissue Kit (Qiagen 69504) following manufacturer instructions. Approximately 1 million cells were used from cell lines and iPSCs. Approximately 10-20 μL of mouse liver cell suspension was used out of 1.5 mL total, and the genome extraction protocol included the Buffer ATL step since this sample is tissue.
Genomic DNA samples were amplified with PCR using Q5 Hot Start High-Fidelity 2X Master Mix (New England BioLabs M0494). For example, the primer set for amplifying around the FANCF site 2 on-target site is NGS_FANCFs2_ON_F and NGS_FANCFs2_ON_R. After amplicon PCR, cleanup was performed using 1.4×AMPure XP (Beckman Coulter A63881) following the manufacturer's instructions. Dual-indexing PCR was performed using KAPA HiFi HotStart ReadyMix (Roche 07958935001) and PCR cleanup was performed using 1×AMPure XP. Samples were quantified using QuBit (Thermo Fisher Scientific), pooled, diluted, and loaded onto a MiSeq (Illumina). […]
Sequencing reads were either demultiplexed automatically using MiSeq Reporter (Illumina) or with a custom Python script to individual FASTQ files. For indel calling, sequencing reads were scanned for exact matches to two 20-bp sequences that flank +/−20 bp from the ends of the target sequence. If no exact matches were found, the read was excluded from analysis. […]

The conditions of data set [5]: previous evaluation, ref [21]; cited from earlier work.
For data set [6], the system named is MRE11 at Cas9 on- and off-target sites in K562 cells. The data set can be described thus: MRE11 ChIP-seq with BLENDER off-target detection (DISCOVER-Seq+) in K562 cells. Format: cell-based, human.
Description: as §1

The structures appear in SMILES notation.

As to `O=c1cc(N2CCOCC2)oc2c1ccc1ccccc12` [Nu7026, 2-(morpholin-4-yl)benzo (h) chromen-4-one], in data set [1], the “MRE11 recruitment at the target site (ChIP-qPCR)” value (“MRE11 recruitment” below) is given as “significantly increased MRE11 recruitment”.
For the molecule `CCN1CCN(CC(=O)Nc2ccc(-c3cccc4c(=O)cc(N5CCOCC5)oc34)c3sc4ccccc4c23)CC1` [Ku-60648, 2-(4-ethylpiperazin-1-yl)-N-[4-(2-morpholin-4-yl-4-oxochromen-8-yl)dibenzothiophen-1-yl]acetamide], the “53BP1 foci relative to BRCA1” value in data set [2] (Cas9 with multi-target gRNA targeting over 100 locations) is “reduction in 53BP1 foci relative to BRCA1”. Also, the “number of 53BP1 and BRCA1 foci in the absence of Cas9 (DNA damage by inhibitor alone)” value in data set [2] (without Cas9) was “did not change the number of 53BP1 and BRCA1 foci”. In data set [3] (25 mg/kg b.i.d., mouse liver (18 sites with vehicle), p<0.05), the “average number of target sites identified across 5 biological replicates” value worked out at 27. Moreover, in data set [3] (25 mg/kg b.i.d., mouse liver (51 with vehicle)), the “target sites identified, sequencing reads pooled across all 5 replicates” value amounted to 101. Further, in data set [3] (25 mg/kg peritoneal b.i.d., versus without DNA-PKcs inhibition, p<1E-4), the “MRE11 ChIP-seq signal in liver” value is given as “significantly increased MRE11 ChIP-seq signal”. Besides, the “off-target sites identified genome-wide” value in data set [4] (Cas9 targeting TRA, 12 hours (4 with DISCOVER-Seq)) turned out to be 20. Further, in data set [4] (Cas9 targeting TRA, versus DISCOVER-Seq without drug), the “MRE11 enrichment at all discovered sites” value was “significantly greater MRE11 enrichment”. Besides, in data set [4] (samples without Cas9), the “MRE11 enrichment in samples without Cas9 (negative control)” value is reported as “did not exhibit any change in enrichment”. In addition, in data set [1], the “MRE11 recruitment” value is recorded as “significantly increased MRE11 recruitment”. In addition, the “estimated RPM enrichment normalized to the no drug sample (MRE11 ChIP-qPCR)” value in data set [1] (VEGFA site 2 (4 h, 12 h, 24 h) and HEK site 4 in HEK293T, FANCF site 2 in K562, versus without inhibitor, p=0.0001, n=14) was “significantly higher”. For the same molecule, the “indel editing after Cas9 targeting ACTB” value with Cas9 editing of ACTB is given as “reduction in editing”. In data set [5], the penetration into tissue entry is on record as “strongly penetrations into tissue including tumors” and the pharmacokinetics result is “good pharmacokinetics”. The “MRE11 ChIP-seq enrichment at all discovered on- and off-target sites” value in data set [6] (K562, 12 hours after Cas9 delivery, FANCF site 2 or VEGFA site 2 gRNA, p<1E-3) is “significantly increased MRE11 ChIP-seq enrichment”. In addition, the “fold increase in discovered Cas9 target sites versus without DNA-PKcs inhibition” value in data set [6] (VEGFA site 2 gRNA, K562) is recorded as “over 5 fold”. Also, the “total Cas9 target sites discovered” value in data set [6] (VEGFA site 2 gRNA, K562, with DNA-PKcs inhibition (36 sites without)) was 181.
For the molecule `O=c1[nH]c(=S)[nH]c(N=Cc2ccccc2)c1N=Cc1ccccc1` [Scr7], the “MRE11 recruitment” value in data set [1] is on record as “suppressed MRE11 recruitment”.
On the same count and under the same terms, the result for `O=C(c1cc(Cc2n[nH]c(=O)c3ccccc23)ccc1F)N1CCN(C(=O)C2CC2)CC1` [Olaparib] reads “did not exhibit a clear effect”; that for `O=c1cc(-c2cccc3c2Sc2ccccc2S3)oc(N2CCOCC2)c1` [Ku-55933], “did not exhibit a clear effect”.

Source of the values: US20250002991A1, “METHODS AND COMPOSITIONS FOR GENOME EDITING” (THE JOHNS HOPKINS UNIVERSITY, priority 2021, published 2025).
